Measured values taken from article PMC4838876, “Multivalent display of minimal Clostridium difficile glycan epitopes mimics antigenic properties of larger glycans” (Nature Communications, 2016).

Key:
mAb 2C5 (anti-PS-I IgG1) = experiment: Kinetic SPR of glycans binding to captured mAb 2C5; set-up: species or system mouse; conditions: for off-rate: mAb 2C5; for Kd: mAb 2C5, PBS, 25 °C
Description: (§1) Kinetic SPR experiments were performed to determine the binding strengths of the mAbs to PS-I glycans expressed as dissociation constants (KD)[8] (Fig. 5a). […] Overall, the SPR measurements (summarized in Table 1) confirmed results obtained by glycan microarray presented above.
(§2) Figure 5 KD values of anti-PS-I mAbs binding to 1 and 3 inferred by SPR. (a) mAbs were captured with an anti-mouse IgG antibody immobilized on the SPR sensor surface. Glycan antigens were passed over the surface to monitor changes in the response unit signals. (b,c) Representative sensorgrams showing reference-subtracted binding signals to 1 (b) and 3 (c). KD values were calculated by fitting the curves to a 1:1 Langmuir binding model (black overlaid curves) or with a steady-state affinity model (response units versus concentration plots). Indicated KD values are mean±s.e.m. of n=3 or mean with minimum and maximum values in parentheses of n=2 independent experiments. See Supplementary Figs 3–5 for details.
(§3) Binding analyses were carried out on a Biacore T100 instrument (GE Healthcare). CM5 sensor chips were functionalized with about 10,000 RUs of α-mouse IgG capture antibody, using the Mouse Antibody Capture Kit and the Amine Coupling Kit (GE Healthcare) according to the manufacturer's recommendations. A blank-immobilized flow cell was used as reference, to compensate for nonspecific binding of antibodies or oligosaccharides to the sensor chip surface. Kinetic measurements were performed with the Biacore T100 Control software using the ‘Kinetics' function. PBS was used as running buffer and all measurements were performed at 25 °C and a flow rate of 30 μl min^−1. About 500 RUs of mAbs were captured at a concentration of 50 μg ml^−1 diluted in PBS and oligosaccharides or OAAs (in PBS) at the indicated concentrations were passed through, using the standard parameters for association and dissociation times unless mentioned otherwise. Flow cells were regenerated with 10 mM glycine-HCl pH 1.7 for 30 s. Kinetic evaluation of binding responses was performed with the Biacore T100 Evaluation software, using reference-subtracted sensorgrams. Two different kinetic models, a 1:1 binding Langmuir model and a two-state reaction model, which assumes a conformational change in the antibody–analyte complex, were used to fit the data. The fitting quality was evaluated by investigating respective residual plots, χ^2 and s.e. values for on- and off-rates. Both models yielded similar good fittings. We chose the 1:1 binding model over the two-state reaction model to calculate on- and off-rates, as well as KD values, as this model makes fewer assumptions. When on-rates and/or off-rates were outside of the measurable ranges of the instrument, the steady-state affinity model was used instead to determine KD values. The 1:1 binding model was generally preferred over the steady-state affinity model in cases where both could be applied. In these cases, the two models yielded roughly similar KD values. Thermodynamic parameters were inferred by using the ‘Thermodynamics' function of the Biacore T100 Control software with the same experimental set-up described above. Temperatures from 13 to 37 °C were chosen. Values for ΔG, ΔH and ΔS were inferred by van't Hoff analysis. IM analysis was carried out by Ridgeview Diagnostics AB, Uppsala, Sweden.
Supplementary Figure 3 | KD values of mAb 2C5 to PS‐I oligosaccharide antigens inferred by SPR. […]

[1] = target: mAb 10A1 (anti-PS-I IgG1); experiment: Kinetic SPR of glycans binding to captured mAb 10A1; set-up: species or system mouse; conditions: mAb 10A1, PBS, 25 °C, mean (min;max) n=2
Description: as §1, §2
Binding analyses were carried out on a Biacore T100 instrument (GE Healthcare). […] The fitting quality was evaluated by investigating respective residual plots, χ^2 and s.e. values for on- and off-rates. […]

[2] = system: anti-PS-I mAbs 2C5, 10A1 and 10D6; experiment: Kinetic SPR, summary over the three anti-PS-I mAbs; format: binding, mouse; conditions: for Kd: SPR, range over mAbs 2C5, 10A1, 10D6
Description: as §1
as §3, with “The 1:1 binding model was generally preferred over the steady-state affinity model in cases where both could be applied. In these cases, the two models yielded roughly similar KD values. Thermodynamic parameters were inferred by using the ‘Thermodynamics' function of the Biacore T100 Control software with the same experimental set-up described above. Temperatures from 13 to 37 °C were chosen. Values for ΔG, ΔH and ΔS were inferred by van't Hoff analysis. IM analysis was carried out by Ridgeview Diagnostics AB, Uppsala, Sweden.” left out

[3] = mean±s.e.m. n=3 or mean (min;max) n=2

Compound	off-rate (mAb 2C5 (anti-PS-I IgG1)) [s⁻¹]	Kd (mAb 2C5 (anti-PS-I IgG1); [3]) [µM]	off-rate koff (mAb 2C5 (anti-PS-I IgG1); mAb 2C5, dissociation model fit, mean±s.e.m. n=3 or mean (min;max) n=2)	Kd [1] [µM]	fold lower KD values than minimal glycan epitope 3 ([2]; KD of 1 compared with 3)	Kd [2] [µM]
C[C@@H]1O[C@@H](O[C@@H]2[C@@H](O)[C@H](O[C@H]3[C@H](O[C@@H]4O[C@@H](C)[C@H](O)[C@@H](O)[C@H]4O)[C@@H](O)[C@@H](O[C@H]4[C@@H](OCCCCCN)O[C@H](CO)[C@@H](O)[C@@H]4O)O[C@@H]3CO)O[C@H](CO)[C@H]2O)[C@H](O)[C@H](O)[C@H]1O [Compound 1]	0.0019	0.163 ± 0.023	1.6±0.1 × 10^-3 s^-1	0.245	about 100 fold	0.163 to 0.245
C[C@@H]1O[C@@H](O[C@@H]2[C@@H](O)[C@H](OCCCCCN)O[C@H](CO)[C@H]2O)[C@H](O)[C@H](O)[C@H]1O [Compound 3, Rha-(1→3)-Glc]	0.0016	18	–	5.9	–	5.9 to 37.5
